According to patent US11925643B2, “Toll-like receptor 4 (TLR4) inhibitors and use thereof” (MOR RESEARCH APPLICATIONS LTD., priority 2018, dated 2024):
Residues, ends and D or L forms follow the SMILES beside them.

Experiments:
IL-1β mRNA = IL-1β mRNA level by RT-qPCR in hypoxic cardiomyocytes; format: cell-based; conditions: hypoxic conditions
Experimental: Real-time RT-PCR experiments were performed in duplicates on an ABI 7900 instrument (Applied Biosystems™) using Taqman™ Master Mix (Applied Biosystems™). The average threshold cycles (Ct) of the duplicates were used to calculate the relative expression levels of the following genes: TLR4 (Applied Biosystems™ assay primer ID: Mm00569848_m1 Tlr4), TLR2 (assay primer ID: Mm01769726_m1 Tlr2), TNF-α (assay primer ID: Mm00443260_g1 Tnf) and IL-1β (assay primer ID: Mm00434228_m1 II1b) in vitro and in vivo following hypoxia or ischemia, respectively. The reference gene was TBP and the primer used was derived from mouse TATA-box binding protein (Applied Biosystems™ assay primer ID: Mm00446973_m1 Tbp). Amounts of TLR2, TLR4, TNF-α and IL-1β mRNAs in each sample were calculated relative to TBP mRNA, based on the corresponding Cts, as Relative Quantity (RQ) values, and normalized taking as 1 a randomly selected sample of the control group (TBP mRNA). […]
Decoy peptides represented by compounds PM1-PM10 were tested in vitro for their ability to decrease the level of CK and LDH released by stressed cardiomyocytes following exposure to LPS or hypoxic stimulation, and further evaluated for their ability to affect the level of IL-1β and TLR4 mRNA, and expression of IκB and TLR4 proteins, according to the protocols described in Materials and Methods and in Example 5 herein above.

TLR4 = target: T1, TLR4 (Homo sapiens, UniProt O00206); experiment: FACS analysis of TLR4 expressed by macrophages exposed to LPS; format: cell-based; conditions: 10 μM
T1 construct: FACS analysis to test the expression of TLR4 protein by macrophages under LPS treatment; endogenous in cells; host or cells: human peripheral-blood monocytes differentiated into macrophages with M-CSF
T1 sequence (O00206 24-839): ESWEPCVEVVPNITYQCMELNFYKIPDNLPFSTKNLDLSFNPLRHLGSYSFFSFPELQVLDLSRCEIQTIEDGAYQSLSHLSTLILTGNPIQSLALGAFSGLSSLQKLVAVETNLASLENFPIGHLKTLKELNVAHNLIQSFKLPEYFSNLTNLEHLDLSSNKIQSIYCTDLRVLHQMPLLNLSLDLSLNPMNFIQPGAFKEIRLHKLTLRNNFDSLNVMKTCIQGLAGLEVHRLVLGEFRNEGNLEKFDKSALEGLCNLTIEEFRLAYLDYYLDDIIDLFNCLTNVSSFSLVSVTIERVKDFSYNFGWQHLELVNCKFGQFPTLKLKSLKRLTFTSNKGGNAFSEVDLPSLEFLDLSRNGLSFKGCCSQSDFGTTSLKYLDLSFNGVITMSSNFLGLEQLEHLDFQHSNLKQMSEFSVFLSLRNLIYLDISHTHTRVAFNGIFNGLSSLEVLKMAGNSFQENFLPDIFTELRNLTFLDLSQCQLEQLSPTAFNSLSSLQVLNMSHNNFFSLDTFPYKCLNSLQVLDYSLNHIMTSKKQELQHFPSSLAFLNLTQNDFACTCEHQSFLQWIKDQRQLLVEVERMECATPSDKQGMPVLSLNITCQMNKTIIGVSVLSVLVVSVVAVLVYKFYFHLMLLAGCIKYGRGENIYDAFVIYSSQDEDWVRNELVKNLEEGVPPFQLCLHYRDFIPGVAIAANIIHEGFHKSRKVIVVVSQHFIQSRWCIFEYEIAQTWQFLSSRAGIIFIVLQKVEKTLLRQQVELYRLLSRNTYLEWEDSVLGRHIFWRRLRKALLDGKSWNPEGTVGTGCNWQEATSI
Experimental: Flow cytometry is an analytical cell-biology technique that utilizes light to count and profile cells in a heterogenous fluid mixture. Flow cytometry analysis was used to evaluate binding of antibodies to TLR4 presenting cells. In this assay, an anti-TLR4 antibody was added to a monocytes suspension and cells which bound the antibody were visualized by a fluorescently labeled secondary antibody that bound to the anti-TLR4 antibody (Ab). Accordingly, samples were first “labeled” with the anti-TLR4 antibody, then incubated with Fluor® 488 conjugated to a secondary Ab for TLR4 (CD284) positive cells visualization.
In order to confirm the specificity of binding, and further in order to correct for non-specific or background staining, isotypes control mouse IgGs were added to cell suspensions at the same concentration as the anti-TLR4 Abs. To deduct the non-specific or background staining from the positive staining due to direct Ab binding to the antigen, the level of background staining was assessed by the use of the same fluorochrome as that used for staining the anti-TLR4 Ab.
Peripheral blood (30 ml) was obtained for the isolation of monocytes. Monocytes were purified by density gradient centrifugation as described above, and/or by adherence to plastic in RPMI 1640 medium supplemented with 10% fetal bovine serum (FBS) and antibiotics. Peripheral blood mononuclear cells (PBMCs) (10^6 cells/ml) were first seeded into 24-well plates (0.5 ml per well), after 2 hours, non-adherent cells were removed by several washes with warm PBS.
Monocytes freshly isolated either by density gradient centrifugation by adherence differentiated into macrophages in complete RPMI 1640 medium supplemented with human recombinant macrophage colony stimulating factor (100 ng/ml) for 6 days. To confirm macrophage cell lineage, direct immunostaining was performed with an antibody directed against CD11b/mac1 (Biolegend® Inc., San Diego, Calif., USA). Eighty percent (80%) of positive staining was observed by flow cytometry analysis. The proportion of TLR4 in this separated cell fraction was examined by FACS analysis using, as isotype control, mouse IgG2a IsoControl (eBioscience™ #53-4724-80), and mouse anti-human CD284 Alexa Fluor® 488 Clone FITA125 secondary Ab (Isotype IgG2a. eBioscience™ #53-9917-41), which recognizes the human TLR4 (also known as CD284) cell surface antigen. Cells were analyzed in a BC Gallios Flow Cytometer (Beckman Coulter, Indianapolis Ind., USA) and were initially gated on the basis of forward and side scatter characteristics. Kaluza Software was used to analyze the results. Results are expressed as mean fluorescence intensity (MFI) and also as normalized to control. […]

Row | Compound | inhibition of IL-1β mRNA production (IL-1β mRNA) | TLR4 expression level (TLR4; 30 min before LPS (100 ng/ml or 20 μg/ml), 4 hours) | lowering the expression of TLR4 in the presence of LPS, compared with SEQ ID NO: 25 (TLR4; low and high LPS)
1 | CCCCCCCCNc1nc(=O)n(Cc2ccccc2)cc1C [PM6, 1-benzyl-5-methyl-4-(octylamino)pyrimidin-2(1H)-one] | ~12 fold | – | –
2 | CC[C@H](C)[C@H](NC(C)=O)C(=O)N[C@H](C(=O)N[C@@H](Cc1ccccc1)C(=O)N[C@@H](C)C(N)=O)C(C)C [SEQ ID NO:1, (2S,3S)-2-acetamido-N-((S)-1-(((S)-1-(((S)-1-amino-1-oxopropan-2-yl)amino)-1-oxo-3-phenylpropan-2-yl)amino)-3-methyl-1-oxobutan-2-yl)-3-methylpentanamide] (Ac-IVFA-NH2) | – | toward baseline levels | more effective
